The values that follow come from US20050214217A1 (priority 2004, published 2005).

“Also recorded” adds a separate entry of the source.

The test system of experiment [1] is Bomapin mRNA in peripheral human T-cells. In words: Bomapin expression by quantitative RT-PCR in peripheral human T-cells. It counts as cell-based.
Method: PCR was performed for 30 cycles. The ethidium bromide bands corresponding to the amplified bomapin transcripts were quantified by AlphaEase program (Alpha Innotech, San Leandro, Calif., USA). Each PCR tube contained four oligonucleotides primers, two for the Bomapin and two for the internal control (S-14).
Neurotransmitters, agonists and antagonists were added and the cells were incubated at 37 C°, 5% CO2 for up to 72 hours, as indicated for individual experiments. The incubated T-cells were then collected and used for further experimentation.
Total RNA was extracted by using Trizol RNA isolation reagent (Molecular Research Center, Cincinnati, Ohio) based on the acid guanidinium thiocyanate-phenol-chloroform extraction method, according to manufacturer recommendations. RT-PCR was used to amplify the levels of endogenous Bomapin mRNA that may be present in the peripheral human T-cells and in the Jurkat cells (a human mature leukemic cell line that phenotypically resembles resting human T lymphocytes). The expression of the ribosomal protein S-14, derived from the same tissue preparations, served as an internal control. Each reaction contained four oligonucleotides primers, two for Bomapin and two for the internal control S-14. PCR conditions were: cDNA equivalent to 50 ng RNA was amplified for 30 cycles, the annealing temperature was 60° C. and the final MgCl2 concentration was 2.5 mM. […]
The subject of experiment [2] is normal human T-cells. In words: T-cell adhesion assay to fibronectin and laminin. Type of experiment: cell-based. As to conditions: for Blocking of the glutamate effect on integrin-mediated T-cell adhesion to laminin and fibronectin: Glutamate 10 nM. As for the experimental part: Adhesion of untreated cells (BG) serves as a control. The results are expressed as the OD405 of the lysed, fibronectin- or laminin-adherent cells remaining after incubation and repeated washings.
Adhesion of T-cells to fibronectin and laminin was assayed as follows: normal human T-cells, purified from a fresh blood sample, were suspended (1×10^6 cells/ml) in rest medium (RPMI-1640, supplemented with 10% fetal calf serum (Sigma Chemical Co., St. Louis, Mo.), 1% antibiotics, 1% glutamine (Biological Industries, Beit Haemek, Israel) and 0.4% fungizone (GibcoBRL, Life Technologies Ltd., Paisley, Scotland)). […] Following incubation the cells were washed and resuspended in adhesion medium (RPMI-1640 supplemented with 0.1% bovine serum albumin (BSA, Sigma)). The cells were then seeded in 96 well flat-bottomed microtiter plates (Falcon, Becton Dickinson, Heidelberg, Germany, 1×10^5 cells/100 μl/well pre-coated with fibronectin or laminin (ICN Biomedicals Inc., Aurora, Ohio, […], 18 hours, 4° C.). Cells treated with phorbol 12-myristate 13-acetate (PMA, Sigma, 10 ng/ml) served as a positive control. The adhesion plates were incubated (37° C., 30 minutes, 7.5% CO2 humidified incubator), and then washed several times with PBS to remove non-adherent T-cells. The adhered cells were lysed by adding 60 μl/well of lysis-substrate solution (0.5% Triton X-100 in water mixed with an equal volume of 7.5 mM p-nitrophenol-N-acetyl-β-D-glucosaminide (Sigma, St. Louis, Mo.) in 0.1M citrate buffer pH=5.0). The plates were then incubated for 18 h in a CO2-devoid 37° C. incubator, and the reaction was stopped by the addition of […] of 50 mM glycine (Sigma, St Louis, Mo.) pH=10.4, containing 5 mM EDTA. The optical density (OD) was measured at 405 nm in a standard ELISA reader. The OD was converted to actual number of cells using a standard curve performed in each experiment.

For experiment [3], the system named is human peripheral lymphocytes. The conditions noted are these: cited from earlier work.
Experiment [4] deals with cloned resting human Th1 cells (clone 305). The experiment in a line: Cytokine secretion by ELISA, resting cloned Th1 cells. Type of experiment: cell-based. The conditions noted are these: 10^−8 M Glutamate, versus untreated. As for the experimental part:
The results are expressed as pg/ml IL-10.
The results are expressed as pg/ml IL-4.
(§1) Human T-cell clones were prepared essentially as described by Besser M and Wank J (Besser M and Wank J, J Immunol 1999; 162:6303-306): Human PBMC were purified from whole blood by Ficoll gradient (Amersham Pharmacia Biotech, Freiburg, Germany). CD4^+ Th (T-helper) cells were isolated by using CD4 mAbs coupled to magnetic beads (Dynal, Hamburg, Germany). T cells were cultured at 1-2×10^6 cells/ml either in the presence of 1% PHA (Difco, Hamburg, Germany), 20 μg of anti-CD3 (OKT-3, Cilag, Sulzbach, Germany)-precoated plates in combination with IL-2 (20 U/ml) or IL-4 (100 U/ml), or with 100 ng/ml neurotrophins (Prepro, London, England), 20 U/ml IL-2 (Chiron, Ratingen, Germany), 100 U/ml IL-4 (Genzyme, Ruesselsheim, Germany) or 500 U/ml IFN-γ (Thomae, Bicherach an der Riss, Germany) alone. RPMI 1640 culture medium (Life Technologies, Eggenstein, Germany) was supplemented with 10% FCS (Life Technologies). Alloprimed PBMC were seeded at 0.4 cell/well on allogeneic specific feeder layer. […] Constitutive expression in immune cell bulk cultures was assessed immediately after cell separation, in cloned T lymphocytes after 3 days without further addition of IL-2.
(§2) Cytokine levels were measured in supernatants from Glutamate stimulated human T-cell cultured as described hereinabove. […]
Background: In an ELISA, binding on a coated surface is turned into a signal by an enzyme label.

For experiment [5], the system named is cloned human Th1 cells (clone 305). The experiment in a line: IFN-γ secretion by ELISA, activated (alloprimed) cloned Th1 cells. As to conditions: 20 hours, 10^−8M Glutamate plus mismatched allopriming B cells, versus antigen stimulation alone. Type of experiment: cell-based. The procedure:
(§3) The results are expressed as pg/ml IFN-γ.
as §1, §2

The subject of experiment [6] is GluR3 mRNA in normal human T-cells. The experiment in a line: GluR3 mRNA expression by RT-PCR. Type of experiment: cell-based. The conditions noted are these: Glutamate 10 mM, 24 hours. The source says: FIGS. 10A and 10B are ethidium bromide stained gels of RT-PCR amplified cDNA from two similar experiments.
Total RNA was extracted from cultured T-cells using Trizol RNA isolation reagent (Molecular Research Center, Cincinnati, Ohio) based on the acid guanidinium thiocyanate-phenol-chloroform extraction method, according to manufacturer recommendations. […] The expression of the ribosomal protein S-14, derived from the same cell preparations, served as an internal control. Each reaction contained four oligonucleotides primers, two for GluR3 and two for the internal control S-14. PCR conditions were: cDNA equivalent to 50 ng RNA was amplified for 30 cycles, the annealing temperature was 60° C. and the final MgCl2 concentration was 2.5 mM. The Taq DNA polymerase used in this study was the BIO-X-ACT DNA polymerase (Bioline UK Ltd., London. UK). The PCR products were separated electrophoretically on a 1.5% agarose gel containing ethidium bromide, and visualized under UV light.
GluR3—5′[…] 3′ (SEQ. ID NO: 8) and 5′ […] 3′ (SEQ ID NO: 9) corresponding to nucleotides 699-718 (sense) and 1312-1331 (antisense) respectively. The predicted size of the band is […].

The test system of experiment [7] is human T-cell lukemia (Jurkat) cells. In words: Bomapin expression in Jurkat cells. It counts as cell-based. From the text: Total RNA was extracted by using Trizol RNA isolation reagent (Molecular Research Center, Cincinnati, Ohio) based on the acid guanidinium thiocyanate-phenol-chloroform extraction method, according to manufacturer recommendations. RT-PCR was used to amplify the levels of endogenous Bomapin mRNA that may be present in the peripheral human T-cells and in the Jurkat cells (a human mature leukemic cell line that phenotypically resembles resting human T lymphocytes). The expression of the ribosomal protein S-14, derived from the same tissue preparations, served as an internal control. Each reaction contained four oligonucleotides primers, two for Bomapin and two for the internal control S-14. PCR conditions were: cDNA equivalent to 50 ng RNA was amplified for 30 cycles, the annealing temperature was 60° C. and the final MgCl2 concentration was 2.5 mM. The Taq DNA polymerase used in this study was the BIO-X-ACT DNA polymerase (Bioline UK Ltd., London. UK). The PCR products were separated electrophoretically on a 1.5% agarose gel containing ethidium bromide, and visualized under UV light.

Experiment [8] deals with cloned resting human Th2 cells (clone 401). The experiment in a line: Cytokine secretion by ELISA, resting cloned Th2 cells. Type of experiment: cell-based. The conditions noted are these: 10^−8 M Glutamate, no antigen stimulation, versus untreated. As for the experimental part:
The results are expressed as pg/ml IL-4. Note the clear induction of IL-4 secretion in the Glutamate-treated cells, absent in the non-activated cells.
as §1, with “Technologies).” for “Technologies). Alloprimed PBMC were seeded at 0.4 cell/well on allogeneic specific feeder layer.”
as §2

Experiment [9] concerns resting human peripheral T-cells. In words: Gene expression analysis with Atlas human cDNA expression array. It counts as cell-based. The conditions noted are these: Glutamate 10 nM, 72 hours, autoradiography and densitometry. From the text: FIGS. 1A-1D are tables illustrating the Glutamate-induced regulation of specific gene expression in the human T-cell, through analysis of gene expression using the atlas human cDNA expression array. […] The cDNA was hybridized to the atlas membranes according to the manual, and expression was visualized by autoradiography. […] Note the enhanced expression of T-cell genes such as Rapamycin-selective-25 KD Immunophilin (FKBP-25), Heat shock protein 40 (Hsp 40), Cathepsin E presursor, Carbonic anhydrase-related protein (carp) (ca-viii), peptidyl-glycine alpha-amidating monooxygenase presursor (pam), and axonemal dynein heavy chain (fragment) as well as of genes whose expression has been previously undetected in T cells such as Stimulator of Fe Transport (SFT), oviductal glycoprotein, Clathrin light chain, Protein Inhibitor of Activated STAT (PIAS) and Cartilage Intermediate Layer Protein (CILP) (FIG. 1A).
Hybridizations to the Atlas Human cDNA Expression Arrays membranes (Catalog No. 1.2 KIII (7850-1) and III (7855-1), Clontech Laboratories) were performed by Clonetech Laboratories, as described in the user manual. Analysis of the expression pattern of up and down regulated genes, as compared to that of untreated T-cells, was performed by Clontech, as described in their manual. […]

In experiment [10] the test system is normal human T-cells. The experiment in a line: In-vitro chemotactic migration assay towards SDF-1. It counts as cell-based. As to conditions: pre-treatment 66 hours, Glutamate 10^−8, fibronectin-coated filters. As for the experimental part:
FIG. 8 illustrates the Glutamate-induced migration of normal human T-cells towards the chemokine SDF-1. […] The cells in each experimental group were counted by FACSORT. The results are expressed as the number of fluorescently-labeled migrating Glutamate-treated T-cells vs. untreated controls (Untreated).
The cells were then washed, resuspended in adhesion medium, and added to the upper chambers (2×10^5 cells per 100 μl well) of a 24-well chemotaxis microchamber plate (Corning Inc., Corning, N.Y.). The two compartments of the microchambers were separated by polycarbonate filters ([…]) pre-coated with fibronectin or laminin ([…], about 1.5 hour, 37° C.). The lower chambers contained adhesion medium, which was supplemented, where indicated, with 100-250 ng/ml of the chemokine stromal cell-derived factor 1a (SDF-1a, Peprotech Inc., Rocky Hill, N.J.). The chemotaxis microchamber plate was incubated (3 hours, 37° C., 7.5% CO2 humidified incubator), the filter-containing upper chambers were gently removed and the contents of the individual lower chambers (containing the migrated cells) thoroughly mixed by pipetting and transferred into clean tubes. The number of cells in each tube was determined by FACSORT. Counting time for all the experimental groups was two minutes. […]

Experiment [11] relates to cloned human Th0 cells (clone 234). In words: IFN-γ secretion by ELISA, activated (alloprimed) cloned Th0 cells. Type of experiment: cell-based. The conditions noted are these: 20 hours, 10^−8M Glutamate plus mismatched allopriming B cells, versus antigen stimulation alone. The procedure: as §3, §1, §2
The mark [12] stands for this setting: CNQX added to Glutamate during incubation.
[13] abbreviates: PHA or mAb activated human peripheral lymphocytes.
Setting [14] is: 10^−8M Glutamate, 30 minutes, versus untreated (BG).

With `N#Cc1cc2[nH]c(=O)c(=O)[nH]c2cc1[N+](=O)[O-]` [CNQX], the “Glutamate-induced Bomapin transcripts in the presence of antagonist” value in experiment [1] (T-cells treated with Glutamate in the presence of CNQX) is “absence of detectable Bomapin transcripts”. Moreover, in the experiment with normal human T-cells [2] (setting [12]), the “Effect on Glutamate-mediated fibronectin binding” value is recorded as “strongly inhibits” and the “Effect on Glutamate-mediated laminin binding” value is given as “strongly inhibits”. In addition, in the experiment with normal human T-cells [2], the “Blocking of the glutamate effect on integrin-mediated T-cell adhesion to laminin and fibronectin” value is on record as “blocked specifically”.
Consider `O=C(O)c1cc(=O)c2ccccc2[nH]1` [KYNA, reference compound], for which, in [3] (setting [13]), the “Effect on Glutamate potentiation in activated lymphocytes” value is “inhibition of Glutamate potentiation”.
In the case of `NS(=O)(=O)c1cccc2c1c([N+](=O)[O-])cc1nc(O)c(O)nc12` [NBQX, reference compound], in [3] (setting [13]), the “Effect on Glutamate potentiation in activated lymphocytes” value is on record as “inhibition of Glutamate potentiation”. In the experiment on normal human T-cells [2], the “Blocking of the glutamate effect on integrin-mediated T-cell adhesion to laminin and fibronectin” value is given as “blocked specifically”.
As to `N[C@@H](CCC(=O)O)C(=O)O` [Glutamate], the “Ca++ influx and proliferation in activated lymphocytes” value in [3] (setting [13]) was “induction of Ca^++ influx and proliferation”. For the same molecule, the “Effect on unstimulated, resting lymphocytes” value in [3] (high levels (1 mM) of Glutamate) is listed as “no effect”. In [4], the “IL-4 secretion ("forbidden" cytokine)” value is listed as “significant induction” and the “IL-10 secretion ("forbidden" cytokine)” value was “significant induction”. The “Bomapin mRNA level versus untreated cells” value in experiment [1] (Glutamate 10 nM, 72 hours, 30 PCR cycles, S-14 internal control) was “about 6 fold”. In experiment [5], the IFN-γ secretion result is on record as “additional significant IFN-γ secretion”. Besides, in the experiment with normal human T-cells [2] (setting [14]), the “T-cell adhesion to fibronectin” value was “significant increase” and the “T-cell adhesion to laminin” value is “significant increase”. Moreover, the “RT-PCR-amplified GluR3 cDNA transcripts” value in experiment [6] is listed as “absence of RT-PCR-amplified GluR3 Glutamate receptor cDNA transcripts”. For the same molecule, the Bomapin expression result in experiment [7] is reported as “induces expression”. In addition, in [8], the IL-4 secretion result is recorded as “strong release of IL-4”. Also, in experiment [9], the “Differential pattern of gene expression versus untreated cells” value is recorded as “induced the over expression of mRNA encoding for several genes; also recorded: down-regulated the expression of others”. The “Migration towards the chemoattractant SDF-1 (number of migrating cells)” value in the experiment on normal human T-cells [10] is listed as “significantly augments”. The IFN-γ secretion result in [11] is “additional significant IFN-γ secretion”.
